Test results: US7351389B2, “Aminocarboxylate ligands having substituted aromatic amide moieties” (Bracco International B.V., priority 1991, dated 2008)

Columns and labels:
[1] = T1 relaxivity of gadolinium complexes (IBM Minispec spin analyzer); format: physicochemical; details: Gd(L) complex, 20 MHz, 39±1° C.; for T1 Relaxivity: aqueous solutions, 0.1-5 mM Gd
Procedure: The T1 relaxivity was measured for nine prior art gadolinium complexes (1-9) as compared to novel gadolinium complexes using the ligands of Examples 1, 2 and 3 (#10, 11 and 12, respectively, in the Table below). Relaxivity was measured on an IBM Minispec spin analyzer operating at 20 MHz and 39±1° C. Aqueous solutions were used in 0.1-5 mM Gd concentration range.

[2] = chelating a paramagnetic ion, e.g., Gd; cited from earlier work
[3] = chelating a paramagnetic ion, e.g., Gd; cited from earlier work; remark: listed apart in the source

T1 Relaxivity [1] [mM⁻¹ s⁻¹] | relaxivity (comparison in words of Table 1) [1] | Molecule | water solubility [2] | relaxivity [3]
3.4 |  | O=C(O)CN1CCN(CC(=O)O)CCN(CC(=O)O)CCN(CC(=O)O)CC1 [DOTA, reference compound] |  | 
5.9 | especially high | 10-[2-[[3,5-Bis[[(2-methylbutyl)amino]carbonyl]-phenyl]amino]2-oxoethyl]1,4,7,10-tetraazacyclododecane-1,4,7-triacetic acid, monogadolinium complex [AAA-DO3A] |  | 
5.4 | especially high | O=C(O)CN1CCN(CC(=O)O)CCN(CC(=O)Nc2cc(C(=O)NC(CO)CO)cc(C(=O)NC(CO)CO)c2)CCN(CC(=O)O)CC1 [HAS-DO3A] |  | 
4.4 |  | O=C(O)CN(CCN(CC(=O)O)C(=O)NCC(O)CO)CCN(CC(=O)O)C(=O)NCC(O)CO (centres unmarked) (Gd complex, metal not drawn) [DTPA-HA, reference compound] |  | 
5.8 | especially high | 10-[2-[[3,5-Bis[[(2,3-dihydroxypropyl)amino]-carbonyl]phenyl]amino]-2-oxoethyl]-1,4,7,10-tetraazacyclododecane-1,4,7-triacetic acid, monogadolinium complex [HAA-DO3A] |  | 
 |  | O=C(O)CN1CCN(CC(=O)O)CCN(CC(=O)Nc2ccccc2)CCN(CC(=O)O)CC1 | poor water solubility | acceptable relaxivity

Molecule | T1 Relaxivity [1] [mM⁻¹ s⁻¹] | relaxivity (comparison in words of Table 1) [1] | water solubility [2] | relaxivity [3]
O=C(O)CN(CCN(CC(=O)O)CC(=O)O)CCN(CC(=O)O)CC(=O)O (Gd complex, metal not drawn) [DTPA, diethylenetriaminepentaacetic acid, reference compound] | 3.7 |  |  | 
